Values after ≈ are worked out from the molar mass of the structure shown. Like-named read-outs stand apart in the source and are kept apart here.
How the values were obtained:
[1] = test system: MRSA (ATCC 35391) biofilm; experiment: Calgary Biofilm Device anti-biofilm activity; type: cell-based, Staphylococcus aureus; settings: for MIC: read-out: MBIC = Minimum Biofilm Inhibitory Concentration
[2] = test system: MSSA (ATCC 25293) biofilm; experiment: Calgary Biofilm Device anti-biofilm activity; type: cell-based; settings: Staphylococcus aureus; for MBC: read-out: MBEC = Minimum Biofilm Eradication Concentration
[3] = test system: S. epidermidis (RP62A) biofilm; experiment: Calgary Biofilm Device anti-biofilm activity; type: cell-based; settings: Staphylococcus epidermidis; for MIC: read-out: MBIC = Minimum Biofilm Inhibitory Concentration
[4] = test system: clinical isolates of MSSA (methicillin sensitive S. aureus); type: cell-based
[5] = test system: Enterococcus faecalis ATCC 33186; experiment: Antibacterial activity assay (MIC, broth dilution); type: cell-based; settings: ATCC33186; Enterococcus faecalis ATCC 33186; read-out: MIC, EF
Cytotoxicity assay (MTT) = type: cell-based, monkey; settings: monkey, Vero cells, 72 hours, MTT, read-out: IC50 (Cytotoxicity): Concentration which reduces viability of Vero kidney cells by 50%
Method: (§1) Cytotoxicity assays of drugs of Formula I of Example 3 and of Formula II of Example 5 were performed using the Vero monkey kidney cell line (ATCC, CCL-81). Vero cells were grown in tissue culture flasks in Dulbecco's Modified Eagle's Medium (ATCC) supplemented with 10% fetal bovine serum and maintained in a humidified incubator (37° C., 5% CO2). Cells were removed with a cell scraper, collected by centrifugation and then suspended in fresh medium at ˜10^6 cells/mL. The cell suspensions were dispensed into 96-well microtiter plates (100 μl/well) and incubated for 18 hours at 37° C. before being used for cytotoxicity assays. Test compounds were subsequently added at concentrations ranging from 400-0.024 μg/mL and 0.1% vol/vol of Triton-X 100, which causes 100% death of cells, was included as a control. After incubating cells and compounds for 72 hours in humid air (37° C., 5% CO2) the cytopathic effects of compounds were determined using the MTT Cell Proliferation Assay (ATCC, Cat No. 30-1010K). The MTT solution reagent (10 μl) was added to each well and plates incubated at 37° C. until sufficient purple color development occurred in cells (3 hours). After detergent cell lysis, the purple formazan product was measured at 570 nm in a Synergy HT Biotek microplate reader. IC50 data was obtained from dose response curves plotted from percentage activity versus log10 concentration using Graphpad prism 5.

[6] = test system: Vero monkey kidney cell line (ATCC, CCL-81); experiment: Cytotoxicity assay (MTT); type: cell-based; settings: IC50 divided by MIC against S. aureus 8325
Method: as §1

[7] = test system: Methicillin sensitive Staphylococcus aureus 8325 ATCC 35556; experiment: Antibacterial activity assay (MIC, broth dilution); type: cell-based; settings: ATCC 35556 / MSSA; Methicillin sensitive Staphylococcus aureus 8325 ATCC 35556; read-out: MIC, MSSA
[8] = test system: Mycobacterium tuberculosis H37 Rv; experiment: Antibacterial activity assay (MIC, broth dilution); type: cell-based; settings: H37RV, 168 h; Mycobacterium tuberculosis H37 Rv; […]; read-out: MIC, TB
[9] = test system: Bacillus subtilis ATCC 23857; experiment: Antibacterial activity assay (MIC, broth dilution); type: cell-based; settings: ATCC23857; Bacillus subtilis ATCC 23857; read-out: MIC, BS
[10] = test system: Methicillin Resistant Staphylococcus aureus ATCC 33591; experiment: Antibacterial activity assay (MIC, broth dilution); type: cell-based; settings: ATCC 33591 / MRSA, read-out: MIC, MRSA
[11] = test system: clinical isolates of MRSA (methicillin resistant S. aureus); type: cell-based
[12] = test system: Streptococcus pyogenes ATCC 700294; experiment: Antibacterial activity assay (MIC, broth dilution); type: cell-based; settings: ATCC700294; Streptococcus pyogenes ATCC 700294; read-out: MIC, SP
[13] = test system: Propionibacterium acnes ATCC 6919; experiment: Antibacterial activity assay (MIC, broth dilution); type: cell-based; settings: Cutibacterium acnes, ATCC6919; Propionibacterium acnes ATCC 6919; read-out: MIC, PA
[14] = test system: Bacillus anthracis Sterne 34F2; experiment: microbe, parasite or virus in culture; type: cell-based; settings: STERNE34F2, read-out: MIC, BA
[15] = test system: Streptococcus pneumoniae DAW30EC; experiment: Antibacterial activity assay (MIC, broth dilution); type: cell-based; settings: Streptococcus pneumoniae DAW30EC; read-out: MIC, SPn

Row | Compound | Antibiotic MIC ([4]; isolate MSSA-11) [µg/mL] | Antibiotic MIC ([4]; isolate MSSA-12) [µg/mL] | Antibiotic MIC ([4]; isolate MSSA-13) [µg/mL] | Antibiotic MIC ([4]; isolate MSSA-14) [µg/mL] | Antibiotic MIC ([4]; isolate MSSA-15) [µg/mL] | Antibiotic MIC ([4]; isolate MSSA-16) [µg/mL] | Antibiotic MIC ([4]; isolate MSSA-17) [µg/mL] | Antibiotic MIC ([4]; isolate MSSA-18) [µg/mL] | Antibiotic MIC ([4]; isolate MSSA-19) [µg/mL] | Antibiotic MIC ([4]; isolate MSSA-20) [µg/mL] | MIC [5] [µg/mL] | IC50/MIC = Selectivity (therapeutic) index [6] | MIC [7] [µg/mL] | MIC [8] [µg/mL] | MIC [9] [µg/mL] | MIC [10] [µg/mL] | Antibiotic MIC ([11]; isolate MRSA-1) [µg/mL] | Antibiotic MIC ([11]; isolate MRSA-2) [µg/mL] | Antibiotic MIC ([11]; isolate MRSA-3) [µg/mL] | Antibiotic MIC ([11]; isolate MRSA-4) [µg/mL] | other results
1 | CO[C@H]1/C=C/O[C@@]2(C)Oc3c(C)c(O)c4c(O)c(c(/C=N/N5CCN(C)CC5)c(O)c4c3C2=O)NC(=O)/C(C)=C\C=C\[C@H](C)[C@H](O)[C@@H](C)[C@@H](O)[C@@H](C)[C@H](OC(C)=O)[C@@H]1C [Rifampicin, rifampicin, reference compound] | – | – | – | – | – | – | – | – | – | – | – | – | – | – | – | – | – | – | – | – | MBIC = Minimum Biofilm Inhibitory Concentration ([1]; MRSA biofilm, triplicate runs listed singly): <0.2 µg/mL; MIC ([1]; Staphylococcus aureus, MRSA biofilm, triplicate runs listed singly): < 0.2 µg/mL; MBC ([2]; MSSA biofilm, triplicate runs listed singly): 100 µg/mL (≈ 122 µM); MIC ([2]; MSSA biofilm, triplicate runs listed singly, read-out: MBIC = Minimum Biofilm Inhibitory Concentration): 0.4 µg/mL (≈ 0.486 µM); MIC ([3]; S. epidermidis biofilm, triplicate runs listed singly): < 0.2 µg/mL
2 | CCCCCCCCCCN1C(=O)/C(=C(/C)O)C(=O)[C@@H]1Cc1ccccc1 [Compound 13n, (S,Z)-5-benzyl-1-decyl-3-(1-hydroxyethylidene)pyrrolidine-2,4-dione] | 0.8 | 0.8 | 0.8 | 1.6 | 0.2 | 0.8 | 0.8 | 0.8 | 0.4 | 0.8 | 0.8 (≈ 2.15 µM) | 105.5 | 0.2 (≈ 0.538 µM) | 50 (≈ 135 µM) | 0.4 (≈ 1.08 µM) | 0.8 (≈ 2.15 µM) | 1.6 | 1.6 | 1.6 | 0.8 | IC50 at 72 h (Cytotoxicity assay (MTT); Vero monkey kidney cells (ATCC CCL-81)): 21.1 µg/mL; Antibiotic MIC ([11]; isolate MRSA-5): 0.8 µg/mL; Antibiotic MIC ([11]; isolate MRSA-6): 0.8 µg/mL; Antibiotic MIC ([11]; isolate MRSA-7): 0.8 µg/mL; Antibiotic MIC ([11]; isolate MRSA-8): 0.2 µg/mL; Antibiotic MIC ([11]; isolate MRSA-9): 0.8 µg/mL; Antibiotic MIC ([11]; isolate MRSA-10): 0.8 µg/mL; MIC [12]: 50 µg/mL (≈ 135 µM); MIC [13]: 0.4 µg/mL (≈ 1.08 µM); MIC [14]: 0.2 µg/mL (≈ 0.538 µM); MIC [15]: 12.5 µg/mL (≈ 33.6 µM)
3 | CCCCN1C(=O)/C(=C(/C)O)C(=O)[C@@H]1CC(C)C [Compound 13j, (S,Z)-1-butyl-3-(1-hydroxyethylidene)-5-isobutylpyrrolidine-2,4-dione] | 12.5 | 6.25 | 12.5 | 25 | 3.12 | 6.25 | 6.25 | 6.25 | 3.12 | 25 | 1.6 (≈ 6.32 µM) | 81.4 | 3.12 (≈ 12.3 µM) | 100 (≈ 395 µM) | 6.25 (≈ 24.7 µM) | 6.25 (≈ 24.7 µM) | 50 | 25 | 25 | 25 | IC50 at 72 h (Cytotoxicity assay (MTT)): 254 µg/mL; Antibiotic MIC ([11]; isolate MRSA-5): 25 µg/mL; Antibiotic MIC ([11]; isolate MRSA-6): 25 µg/mL; Antibiotic MIC ([11]; isolate MRSA-7): 50 µg/mL; Antibiotic MIC ([11]; isolate MRSA-9): 6.25 µg/mL; Antibiotic MIC ([11]; isolate MRSA-10): 50 µg/mL; MIC [12]: > 200 µg/mL; MIC [13]: 0.8 µg/mL (≈ 3.16 µM); MIC [14]: 12.5 µg/mL (≈ 49.3 µM); MIC [15]: 100 µg/mL (≈ 395 µM)
4 | CN[C@H](CC(C)C)C(=O)N[C@H]1C(=O)N[C@@H](CC(N)=O)C(=O)N[C@H]2C(=O)N[C@H]3C(=O)N[C@H](C(=O)N[C@H](C(=O)O)c4cc(O)cc(O)c4-c4cc3ccc4O)[C@H](O)c3ccc(c(Cl)c3)Oc3cc2cc(c3O[C@@H]2O[C@H](CO)[C@@H](O)[C@H](O)[C@H]2O[C@H]2C[C@](C)(N)[C@H](O)[C@H](C)O2)Oc2ccc(cc2Cl)[C@H]1O [Vancomycin, vancomycin, reference compound] | – | – | – | – | – | – | – | – | – | – | – | – | – | – | – | – | – | – | – | – | MBC ([1]; Staphylococcus aureus, read-out: MBEC = Minimum Biofilm Eradication Concentration): > 400 µg/mL; MIC ([1]; Staphylococcus aureus): 1.6 µg/mL (≈ 1.1 µM); MBC [2]: > 400 µg/mL; MBC ([3]; read-out: MBEC = Minimum Biofilm Eradication Concentration): > 400 µg/mL; MIC [3]: 12.5 µg/mL (≈ 8.63 µM)
